From patent US20250388605A1, “HETEROBIFUNCTIONAL COMPOUNDS AND METHODS OF TREATING DISEASE” (Halda Therapeutics OpCo, Inc., priority 2022, published 2025)

Legend:
[1] = test system: T-Rex 293 cell line SC3 cells having increased expression of androgen receptor protein due to exposure to doxycycline; assay: Cellular growth inhibition, T-Rex 293 SC3 cells with doxycycline (increased androgen receptor expression), CellTiter-Glo; format: cell-based; conditions: T-Rex 293 SC3 cells with 10 ng/mL doxycycline (increased androgen receptor expression), 72 hours, CellTiter-Glo 2.0
Outline: (§1)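 Growth inhibition is measured in an inducible AR-expressing T-Rex 293 clone, SC3, cultured with or without 10 ng/mL doxycycline in hormone-depleted medium. Test compounds are applied for 72 hours. GI50 values derive from CellTiter-Glo 2.0 signal fitted by four-parameter regression.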

[2] = test system: T-Rex 293 cell line SC3 cells lacking increased expression of androgen receptor protein; assay: Cellular growth inhibition, T-Rex 293 SC3 cells without doxycycline (no increased androgen receptor expression), CellTiter-Glo; format: cell-based; conditions: T-Rex 293 SC3 cells not exposed to doxycycline (no increased androgen receptor expression), 72 hours
Outline: as §1

VCaP cells = assay: Cellular growth inhibition assay for VCaP cells, CellTiter-Glo; format: cell-based, human; conditions: 72 hours
Outline: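 GI50 values come from four-parameter curve fits of luminescence data normalized to a zero baseline. Compound, in medium with 0.5% DMSO, was added one day after plating and left for 72 h before CellTiter-Glo 2.0 addition.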

T47D cells = assay: Cellular Growth Inhibition Assay for T47D Cells (CellTiter-Glo); format: cell-based, human; conditions: 72 hours
Outline: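 GI50 values derive from four-parameter regression of CellTiter-Glo 2.0 luminescence, using zero luminescence as baseline. Human breast cancer T47D cells (3000/well; DMEM, 10% FBS, 0.2 units/mL insulin) were exposed for 72 h to compound dilutions at 0.5% DMSO, with dosing starting 24 h after seeding.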

| SMILES | GI50 [1] [µM] | GI50 [2] [µM] | GI50 (VCaP cells; Homo sapiens) [µM] | GI50 (T47D cells; Homo sapiens) [µM] | GI50 (VCaP cells) [µM] | GI50 (T47D cells) [µM] |
| --- | --- | --- | --- | --- | --- | --- |
| CCS(=O)(=O)Nc1ccc(Oc2cccc(N3CC(CC4CCN(c5ncc(C(=O)N[C@H]6C(C)(C)[C@H](Oc7ccc(C#N)c(Cl)c7)C6(C)C)cn5)CC4)C3)c2)c(-c2cn(C)c(=O)c3[nH]ccc23)c1 [Compound I-79] | < 0.5 | 0.5 to 1.5 | < 0.5 | < 0.5 | – | – |
| Cn1cc(-c2cc(C(C)(C)O)ccc2Oc2ccc(CCC3C4CN(c5ncc(C(=O)N[C@H]6C(C)(C)[C@H](Oc7ccc(C#N)c(Cl)c7)C6(C)C)cn5)CC34)cc2)c2cc[nH]c2c1=O (stereo partly drawn) [Compound I-286] | < 0.5 | 0.5 to 1.5 | – | – | < 0.5 | < 0.5 |
| CCS(=O)(=O)Nc1ccc(Oc2cccc(CCC3CCN(c4ncc(C(=O)N[C@H]5C(C)(C)[C@H](Oc6ccc(C#N)c(Cl)c6)C5(C)C)cn4)CC3)c2F)c(-c2cn(C)c(=O)c3[nH]ccc23)c1 [Compound I-165] | < 0.5 | > 3 | < 0.5 | < 0.5 | – | – |
| CCS(=O)(=O)Nc1ccc(Oc2cccc(N3CCN(CC4CCN(c5ncc(C(=O)N[C@H]6C(C)(C)[C@H](Oc7ccc(C#N)c(Cl)c7)C6(C)C)cn5)CC4)CC3)c2)c(-c2cn(C)c(=O)c3[nH]ccc23)c1 [Compound I-37] | < 0.5 | < 0.5 | < 0.5 | 0.5 to 1.5 | – | – |
| Cn1cc(-c2cc(C(C)(C)O)ccc2Oc2ccc(C(C)(C)N3CC4(CN(c5ncc(C(=O)N[C@H]6C(C)(C)[C@H](Oc7ccc(C#N)c(Cl)c7)C6(C)C)cn5)CCO4)C3)cc2)c2cc[nH]c2c1=O [Compound I-312] | < 0.5 | 0.5 to 1.5 | – | – | < 0.5 | 0.5 to 1.5 |
| CC(C)c1ccc(Oc2cccc(OCCN3CCN(c4ncc(C(=O)N[C@H]5C(C)(C)[C@H](Oc6ccc(C#N)c(Cl)c6)C5(C)C)cn4)CC3)c2F)c(-c2cn(C)c(=O)c3[nH]ccc23)c1 [Compound I-179] | < 0.5 | > 3 | – | – | > 3 | 0.5 to 1.5 |
| Cn1cc(-c2cc(C(C)(C)O)ccc2OCC(CCOC2CCN(c3ncc(C(=O)N[C@H]4C(C)(C)[C@H](Oc5ccc(C#N)c(Cl)c5)C4(C)C)cn3)CC2)C2CC2)c2cc[nH]c2c1=O (stereo partly drawn) [Compound I-265] | < 0.5 | 0.5 to 1.5 | – | – | 0.5 to 1.5 | 1.5 to 3 |
| Cn1cc(-c2cc(C(C)(C)O)ccc2Oc2cccc(CC3CC4(C3)CN(c3ncc(C(=O)N[C@H]5C(C)(C)[C@H](Oc6ccc(C#N)c(Cl)c6)C5(C)C)cn3)C4)c2)c2cc[nH]c2c1=O [Compound I-321] | < 0.5 | < 0.5 | – | – | < 0.5 | < 0.5 |
| CCS(=O)(=O)c1ccc(Oc2ccc(CN3CC4(CCN(c5ncc(C(=O)N[C@H]6C(C)(C)[C@H](Oc7ccc(C#N)c(Cl)c7)C6(C)C)cn5)CC4)C3)c(F)c2)c(-c2cn(C)c(=O)c3[nH]ccc23)c1 [Compound I-275] | < 0.5 | < 0.5 | < 0.5 | < 0.5 | – | – |
| Cn1cc(-c2cc(C(C)(C)O)ccc2Oc2ccc(N3CCC(CC4CN(c5ncc(C(=O)N[C@H]6C(C)(C)[C@H](Oc7ccc(C#N)c(Cl)c7)C6(C)C)cn5)C4)CC3)cc2)c2cc[nH]c2c1=O [Compound I-350] | < 0.5 | < 0.5 | < 0.5 | < 0.5 | – | – |
| Cn1cc(-c2cc(C(C)(C)O)ccc2Oc2ccc(OC[C@@H]3CCCN(c4cnc(C(=O)N[C@H]5C(C)(C)[C@H](Oc6ccc(C#N)c(Cl)c6)C5(C)C)cn4)C3)cc2)c2cc[nH]c2c1=O [Compound I-340] | > 3 | > 3 | – | – | > 3 | < 0.5 |
| CCS(=O)(=O)Nc1ccc(Oc2cccc(N3CCC(OC4CCN(c5ncc(C(=O)N[C@H]6C(C)(C)[C@H](Oc7ccc(C#N)c(Cl)c7)C6(C)C)cn5)CC4)CC3)c2)c(-c2cn(C)c(=O)c3[nH]ccc23)c1 [Compound I-82] | < 0.5 | > 3 | < 0.5 | < 0.5 | – | – |
| Cn1cc(-c2cc(C(C)(C)O)ccc2Oc2ccc(N3CC(CC4CN(C5CCC(C(=O)N[C@H]6C(C)(C)[C@H](Oc7ccc(C#N)c(Cl)c7)C6(C)C)CC5)C4)C3)cc2)c2cc[nH]c2c1=O (stereo partly drawn) [Compound I-313] | 0.5 to 1.5 | 0.5 to 1.5 | < 0.5 | < 0.5 | – | – |
| CC(C)N(CCOC1CCN(c2ncc(C(=O)N[C@H]3C(C)(C)[C@H](Oc4ccc(C#N)c(Cl)c4)C3(C)C)cn2)CC1)c1cccc(Oc2ccc(C(C)(C)O)cc2-c2cn(C)c(=O)c3[nH]ccc23)c1F [Compound I-209] | < 0.5 | < 0.5 | – | – | < 0.5 | < 0.5 |
| CCS(=O)(=O)Nc1ccc(Oc2cccc(N3CCC(CC4CCN(c5ncc(C(=O)N[C@H]6C(C)(C)[C@H](Oc7ccc(C#N)c(Cl)c7)C6(C)C)cn5)CC4)C3)c2)c(-c2cn(C)c(=O)c3[nH]ccc23)c1 (stereo partly drawn) [Compound I-40] | < 0.5 | > 3 | < 0.5 | < 0.5 | – | – |
| Cn1cc(-c2cc(C(C)(C)O)ccc2Oc2ccc(N3CC(CC4CN(c5ccc(C(=O)N[C@H]6C(C)(C)[C@H](Oc7ccc(C#N)c(Cl)c7)C6(C)C)cc5)C4)C3)cc2)c2cc[nH]c2c1=O [Compound I-336] | < 0.5 | > 3 | > 3 | < 0.5 | – | – |
| Cn1cc(-c2cc(C(C)(C)O)ccc2OC(CCCCCN2CCN(c3ncc(C(=O)NC4C(C)(C)C(Oc5ccc(C#N)c(Cl)c5)C4(C)C)cn3)CC2)C2CC2)c2cc[nH]c2c1=O (stereo not drawn) [Compound I-243, N-[3-(3-chloro-4-cyano-phenoxy)-2,2,4,4-tetramethyl-cyclobutyl]-2-[4-[6-cyclopropyl-6-[4-(1-hydroxy-1-methyl-ethyl)-2-(6-methyl-7-oxo-1H-pyrrolo[2,3-c]pyridin-4-yl)phenoxy]hexyl]piperazin-1-yl]pyrimidine-5-carboxamide] | < 0.5 | 0.5 to 1.5 | < 0.5 | 0.5 to 1.5 | – | – |
| Cn1cc(-c2cc(C(C)(C)O)ccc2Oc2ccc(CC3CCN(c4ncc(C(=O)N[C@H]5C(C)(C)[C@H](Oc6ccc(C#N)c(Cl)c6)C5(C)C)cn4)CC3)nc2)c2cc[nH]c2c1=O [Compound I-298, N-[3-(3-chloro-4-cyano-phenoxy)-2,2,4,4-tetramethyl-cyclobutyl]-2-[4-[[5-[4-(1-hydroxy-1-methyl-ethyl)-2-(6-methyl-7-oxo-1H-pyrrolo[2,3-c]pyridin-4-yl)phenoxy]-2-pyridyl]methyl]-1-piperidyl]pyrimidine-5-carboxamide] | < 0.5 | < 0.5 | < 0.5 | < 0.5 | – | – |
| Cn1cc(-c2ccccc2Oc2cccc(CCCN3CCN(c4ncc(C(=O)NC5C(C)(C)C(Oc6ccc(C#N)c(Cl)c6)C5(C)C)cn4)CC3)c2)c2cc[nH]c2c1=O (stereo not drawn) [Compound I-134, N-[3-(3-chloro-4-cyano-phenoxy)-2,2,4,4-tetramethyl-cyclobutyl]-2-[4-[3-[3-[2-(6-methyl-7-oxo-1H-pyrrolo[2,3-c]pyridin-4-yl)phenoxy]phenyl]propyl]piperazin-1-yl]pyrimidine-5-carboxamide] | < 0.5 | 0.5 to 1.5 | < 0.5 | 0.5 to 1.5 | – | – |
| CCS(=O)(=O)Nc1ccc(Oc2cccc(N3CCC(C4CN(c5ncc(C(=O)N[C@H]6C(C)(C)[C@H](Oc7ccc(C#N)c(Cl)c7)C6(C)C)cn5)C4)CC3)c2)c(-c2cn(C)c(=O)c3[nH]ccc23)c1 [Compound I-182] | < 0.5 | > 3 | < 0.5 | < 0.5 | – | – |
| Cn1cc(-c2cc3c(cc2Oc2ccc(N4CC(CC5CN(c6ncc(C(=O)N[C@H]7C(C)(C)[C@H](Oc8ccc(C#N)c(Cl)c8)C7(C)C)cn6)C5)C4)cc2)CCC3(C)O)c2cc[nH]c2c1=O (stereo partly drawn) [Compound I-329, N-[3-(3-chloro-4-cyano-phenoxy)-2,2,4,4-tetramethyl-cyclobutyl]-2-[3-[[1-[4-[1-hydroxy-1-methyl-6-(6-methyl-7-oxo-1H-pyrrolo[2,3-c]pyridin-4-yl)indan-5-yl]oxyphenyl]azetidin-3-yl]methyl]azetidin-1-yl]pyrimidine-5-carboxamide] | < 0.5 | > 3 | < 0.5 | > 3 | – | – |
| Cn1cc(-c2ccccc2Oc2cccc(OCCN3CCN(c4ncc(C(=O)N[C@H]5C(C)(C)[C@H](Oc6ccc(C#N)c(Cl)c6)C5(C)C)cn4)CC3)c2F)c2cc[nH]c2c1=O [Compound I-115] | < 0.5 | < 0.5 | – | – | < 0.5 | 0.5 to 1.5 |
| CCS(=O)(=O)c1ccc(OCC(CCOC2CCN(c3ncc(C(=O)N[C@H]4C(C)(C)[C@H](Oc5ccc(C#N)c(Cl)c5)C4(C)C)cn3)CC2)C2CC2)c(-c2cn(C)c(=O)c3[nH]ccc23)c1 (stereo partly drawn) [Compound I-242] | < 0.5 | < 0.5 | – | – | < 0.5 | < 0.5 |
| Cn1cc(-c2cc(C(C)(C)O)ccc2Oc2ccc(N3CC(CC4CCN(c5ncc(C(=O)N[C@H]6C(C)(C)[C@H](Oc7ccc(C#N)c(Cl)c7)C6(C)C)cn5)CC4)C3)nc2)c2cc[nH]c2c1=O [Compound I-333, N-[3-(3-chloro-4-cyano-phenoxy)-2,2,4,4-tetramethyl-cyclobutyl]-2-[4-[[1-[5-[4-(1-hydroxy-1-methyl-ethyl)-2-(6-methyl-7-oxo-1H-pyrrolo[2,3-c]pyridin-4-yl)phenoxy]-2-pyridyl]azetidin-3-yl]methyl]-1-piperidyl]pyrimidine-5-carboxamide] | < 0.5 | > 3 | < 0.5 | < 0.5 | – | – |
